Experimental data reported in PubChem BioAssay (NCI).
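Each compound was tested at five concentrations against cells in 96-well plates for 48 hours. GI50 marks 50% less growth. TGI denotes the concentration required for complete inhibition of growth.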

How the values were obtained:
Experiment in all cases: NCI tumour cell line growth inhibition, 48 h
[1] = system: SNB-19 CNS
[2] = system: KM12 colon
[3] = system: COLO 205 colon
[4] = system: HCT-116 colon
[5] = system: LOX IMVI melanoma
[6] = system: SR leukemia
[7] = system: SN12C renal
[8] = system: RPMI-8226 leukemia
[9] = system: SK-MEL-2 melanoma
[10] = system: SK-MEL-5 melanoma

CN(C)CCNC(=O)c1cccc2cc3c(Cl)cccc3nc12
TGI [1]: 7.32 µM | TGI [2]: 7.28 µM | TGI [3]: > 29.3 µM | TGI [4]: 2.97 µM | TGI [5]: 2.33 µM | TGI [6]: 14.8 µM | TGI [7]: 3.95 µM | TGI [8]: 14.2 µM | TGI [9]: 3.5 µM

NCCCC[C@@H]1NC(=O)[C@H](CC(=O)O)NC(=O)CNC(=O)[C@H](CCCN=C(N)N)NC(=O)[C@@H](N)CSSC[C@@H](C(=O)O)NC(=O)[C@H](CC(=O)O)NC(=O)[C@@H]2CCCN2C(=O)CNC1=O
GI50 [1]: > 100 µM | TGI [1]: > 100 µM | GI50 [2]: > 100 µM | TGI [2]: > 100 µM | GI50 [3]: > 100 µM | TGI [3]: > 100 µM | GI50 [4]: > 100 µM | TGI [4]: > 100 µM | GI50 [5]: > 100 µM | TGI [5]: > 100 µM | GI50 [6]: > 100 µM | TGI [6]: > 100 µM | GI50 [7]: > 100 µM | TGI [7]: > 100 µM | GI50 [8]: > 100 µM | TGI [8]: > 100 µM | GI50 [10]: > 100 µM | TGI [10]: > 100 µM

Cc1ccc(S(=O)(=O)SC(C)(C)C)cc1
TGI [1]: > 100 µM | TGI [2]: > 91.4 µM | TGI [3]: > 92.5 µM | TGI [4]: 31.8 µM | TGI [5]: 60.1 µM | TGI [6]: > 100 µM | TGI [7]: > 65.2 µM | TGI [8]: 46.4 µM | TGI [9]: > 88.3 µM | TGI [10]: > 100 µM

COc1ccc2c3c([nH]c2c1[N+](=O)[O-])C(C)N(Cc1ccccc1)CC3 (stereo not given)
TGI [1]: > 100 µM | TGI [2]: > 100 µM | TGI [3]: > 100 µM | TGI [4]: 24 µM | TGI [5]: > 100 µM | TGI [6]: 45.2 µM | TGI [7]: > 100 µM | TGI [8]: 7.56 µM | TGI [9]: > 100 µM

Cc1ccc(/C=N/Nc2nc(Nc3ccccc3)nc(-n3nc(C)cc3C)n2)cc1
GI50 [2]: 3.28 µM | TGI [2]: 13.1 µM | GI50 [3]: 3.6 µM | TGI [3]: 13.4 µM | GI50 [4]: 3.18 µM | TGI [4]: 11.7 µM | GI50 [5]: 3.81 µM | TGI [5]: 22.1 µM | GI50 [6]: 3.31 µM | TGI [6]: > 100 µM | GI50 [7]: 3.11 µM | TGI [7]: 92.4 µM | GI50 [8]: 3.19 µM | TGI [8]: 12.9 µM | GI50 [9]: 5.72 µM | TGI [9]: 27 µM | GI50 [10]: 1.77 µM | TGI [10]: 7.44 µM

CN(C)c1ccc2oc(=O)c3ccccc3c2c1
TGI [1]: 70.2 µM | TGI [3]: > 100 µM | TGI [4]: > 100 µM | TGI [5]: > 100 µM | TGI [6]: > 100 µM | TGI [7]: > 100 µM | TGI [8]: > 100 µM | TGI [9]: 84.1 µM | TGI [10]: > 100 µM

O=[N+]([O-])C=C(c1ccc(Cl)cc1)c1ccc(Cl)cc1
TGI [1]: 36.5 µM | TGI [2]: 30.1 µM | TGI [3]: 12.2 µM | TGI [4]: 31.5 µM | TGI [5]: 25.5 µM | TGI [6]: 54 µM | TGI [7]: 35.6 µM | TGI [8]: 34 µM | TGI [9]: 57 µM

C[C@]12CC[C@H]3[C@@H](CC=C4C[C@@H](N5CCCC5)CC[C@@]43C)[C@@H]1C/C(=C\c1cccc(OCCN3CCOCC3)c1)[C@@H]2O
GI50 [1]: 4.41 µM | TGI [1]: > 100 µM | GI50 [2]: 5.02 µM | TGI [2]: > 100 µM | GI50 [3]: 3.89 µM | TGI [3]: 39.3 µM | GI50 [4]: 1.66 µM | TGI [4]: 5.13 µM | GI50 [5]: 2.61 µM | TGI [5]: 7.43 µM | GI50 [6]: 3.03 µM | TGI [6]: > 100 µM | GI50 [7]: 25.9 µM | TGI [7]: > 100 µM | GI50 [9]: 14.1 µM | TGI [9]: 31.8 µM | GI50 [10]: 2.88 µM | TGI [10]: 10.6 µM

CC(N)(Cc1c[nH]c2cccc(F)c12)C(=O)O (stereo not given)
GI50 [1]: > 1000 µM | TGI [1]: > 1000 µM | GI50 [2]: > 1000 µM | TGI [2]: > 1000 µM | GI50 [4]: > 1000 µM | TGI [4]: > 1000 µM | GI50 [5]: > 1000 µM | TGI [5]: > 1000 µM | GI50 [6]: > 1000 µM | TGI [6]: > 1000 µM | GI50 [7]: > 1000 µM | TGI [7]: > 1000 µM | GI50 [8]: > 1000 µM | TGI [8]: > 1000 µM | GI50 [10]: > 1000 µM | TGI [10]: > 1000 µM

O=C(CC1OC(O)C(Cl)=C1Cl)c1cccnc1 (stereo not given)
TGI [1]: > 100 µM | TGI [2]: > 100 µM | TGI [3]: > 100 µM | TGI [4]: > 54.8 µM | TGI [5]: > 100 µM | TGI [6]: > 100 µM | TGI [7]: > 100 µM | TGI [8]: > 60.8 µM | TGI [10]: > 100 µM

CCc1ccc(CCC(=O)Nc2ncc(Cc3ccc(Cl)cc3)s2)o1
GI50 [1]: 0.463 µM | TGI [1]: > 100 µM | GI50 [2]: 0.377 µM | TGI [2]: > 100 µM | GI50 [4]: 0.427 µM | TGI [4]: > 100 µM | GI50 [5]: 1.02 µM | TGI [5]: > 100 µM | GI50 [6]: 0.419 µM | TGI [6]: > 100 µM | GI50 [7]: 0.753 µM | TGI [7]: > 100 µM | GI50 [8]: 0.372 µM | TGI [8]: > 100 µM | GI50 [9]: 0.684 µM | TGI [9]: > 100 µM | GI50 [10]: 0.377 µM | TGI [10]: > 100 µM

CC1=C(c2ccccc2)C(O)(c2ccccc2)C(C)C1=O (stereo not given)
GI50 [1]: 35.5 µM | TGI [1]: > 100 µM | GI50 [2]: 7.52 µM | TGI [2]: > 100 µM | GI50 [3]: 25.1 µM | TGI [3]: > 100 µM | GI50 [4]: 9.95 µM | TGI [4]: > 100 µM | GI50 [5]: 15.3 µM | TGI [5]: > 100 µM | GI50 [6]: 3.75 µM | TGI [6]: > 100 µM | GI50 [7]: 15.4 µM | TGI [7]: > 100 µM | GI50 [9]: 29.7 µM | TGI [9]: > 100 µM | GI50 [10]: 14 µM | TGI [10]: > 100 µM

Cc1cccc(C2SCc3nc4ccccc4n32)c1 (stereo not given)
TGI [2]: 79.8 µM | TGI [4]: 56.7 µM | TGI [5]: > 100 µM | TGI [6]: 64.2 µM | TGI [7]: 96.8 µM | TGI [8]: > 100 µM | TGI [9]: 52.6 µM | TGI [10]: 28.3 µM

COc1ccc(CN2c3ccccc3Sc3ccccc32)c(C(F)(F)F)c1
GI50 [1]: 3.8 µM | TGI [1]: > 100 µM | GI50 [3]: 0.64 µM | TGI [3]: 3.08 µM | GI50 [4]: 0.419 µM | TGI [4]: 21.8 µM | GI50 [5]: 0.832 µM | TGI [5]: 33.3 µM | GI50 [6]: 0.483 µM | TGI [6]: > 100 µM | GI50 [7]: 9.73 µM | TGI [7]: > 100 µM | GI50 [8]: 3 µM | TGI [8]: 31.5 µM | GI50 [9]: 1.18 µM | TGI [9]: 14.7 µM | GI50 [10]: 0.5 µM | TGI [10]: 15.7 µM

Nc1nc([Se])c2ncn(C3OC(CO)C(O)C3O)c2n1 (stereo not given)
GI50 [1]: > 100 µM | TGI [1]: > 100 µM | GI50 [2]: 10.2 µM | TGI [2]: 54.9 µM | GI50 [3]: 19.3 µM | TGI [3]: 72.5 µM | GI50 [4]: 4 µM | TGI [4]: > 100 µM | GI50 [5]: 2.85 µM | TGI [5]: > 100 µM | GI50 [6]: 2.88 µM | TGI [6]: > 100 µM | GI50 [7]: 52.9 µM | TGI [7]: > 100 µM | GI50 [9]: 59.8 µM | TGI [9]: > 100 µM | GI50 [10]: 25.2 µM | TGI [10]: 89.6 µM

CN(C)C(=N/O)/C(=N\O)N(C)C
TGI [1]: > 100 µM | TGI [2]: > 100 µM | TGI [4]: > 100 µM | TGI [5]: > 100 µM | TGI [6]: > 100 µM | TGI [7]: > 100 µM | TGI [8]: > 100 µM | TGI [9]: > 100 µM

Cc1cc2c(C)n(Cc3ccccc3Cl)nc2c(C(=O)O)c1C
TGI [1]: > 100 µM | TGI [4]: > 100 µM | TGI [5]: > 100 µM | TGI [6]: > 100 µM | TGI [7]: > 100 µM | TGI [8]: > 100 µM | TGI [9]: > 100 µM
